Earlier results in patent publication US10307432B2, “Stabilized liquid fosaprepitant formulations” (Cipla Limited, priority 2015, dated 2019).

Key:
[1] = test system: serotonin, dopamine or corticosteroid receptors
[2] = after an IV infusion

| Structure (SMILES) | affinity for serotonin, dopamine or corticosteroid receptors [1] | time of conversion to aprepitant [2] |
| --- | --- | --- |
| C[C@@H](O[C@H]1OCCN(Cc2n[nH]c(=O)[nH]2)[C@H]1c1ccc(F)cc1)c1cc(C(F)(F)F)cc(C(F)(F)F)c1 [Aprepitant] | little or no affinity | – |
| C[C@@H](O[C@H]1OCCN(Cc2nc(O)n(P(=O)(O)O)n2)[C@H]1c1ccc(F)cc1)c1cc(C(F)(F)F)cc(C(F)(F)F)c1 [Fosaprepitant] | – | less than 30 minutes |
